Six molecules from US20240376068A1, “SIGMA LIGAND COMPOUNDS AND USES THEREOF” (Minerva Neurosciences, Inc., priority 2020, published 2024) can be followed below.

Like-named read-outs stand apart in the source and are kept apart here.

For one data set, the target named is sigma 1 (h) (Homo sapiens (Human), UniProt Q99720). In words: Sigma-1 binding assay. As for the experimental part: (§1) Assays for determining Sigma-1 and Sigma-2 binding values were performed according to Ganapathy, M. E. et al. (1999), J. Pharmacol. Exp. Ther., 289:251-260.
Sequence of sigma 1 (h) (Q99720 whole entry): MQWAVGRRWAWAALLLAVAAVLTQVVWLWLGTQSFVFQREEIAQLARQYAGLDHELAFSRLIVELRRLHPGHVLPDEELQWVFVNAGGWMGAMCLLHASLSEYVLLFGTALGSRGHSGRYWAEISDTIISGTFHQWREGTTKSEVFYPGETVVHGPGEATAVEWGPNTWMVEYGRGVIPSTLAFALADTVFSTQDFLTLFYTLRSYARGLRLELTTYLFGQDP
The target in a further data set is Sigma 2 (h) (Homo sapiens (Human), UniProt Q5BJF2). In words: Sigma-2 binding assay. As to the method: as §1
Sequence of Sigma 2 (h) (Q5BJF2 whole entry): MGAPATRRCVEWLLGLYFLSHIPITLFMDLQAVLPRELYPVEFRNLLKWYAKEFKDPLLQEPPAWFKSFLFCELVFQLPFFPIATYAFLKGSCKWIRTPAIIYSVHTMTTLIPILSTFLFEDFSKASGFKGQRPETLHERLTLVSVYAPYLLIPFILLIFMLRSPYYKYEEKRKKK
A further data set deals with 5-HT2A (h) (Homo sapiens (Human), UniProt P28223). Description: 5-HT2A binding assay. The conditions noted are these: antagonist radioligand, HEK-293 cells. As to the method: Assays for determining 5-HT2A binding values were performed according to: Bonhaus, D. W. et al. (1995), Brit. J. Pharmacol., 115:622-628; Schwinn, D. A. et al. (1995), J. Pharmacol. Exp. Ther., 272:134-142; and Vicentic, A. et al. (2002), J. Pharmacol. Exp. Ther., 302:58-65; Bylund D B et al. (1994), Pharmacol. Rev. 46:121-136. Each of which is incorporated by reference in its entirety.
Sequence of 5-HT2A (h) (P28223 whole entry): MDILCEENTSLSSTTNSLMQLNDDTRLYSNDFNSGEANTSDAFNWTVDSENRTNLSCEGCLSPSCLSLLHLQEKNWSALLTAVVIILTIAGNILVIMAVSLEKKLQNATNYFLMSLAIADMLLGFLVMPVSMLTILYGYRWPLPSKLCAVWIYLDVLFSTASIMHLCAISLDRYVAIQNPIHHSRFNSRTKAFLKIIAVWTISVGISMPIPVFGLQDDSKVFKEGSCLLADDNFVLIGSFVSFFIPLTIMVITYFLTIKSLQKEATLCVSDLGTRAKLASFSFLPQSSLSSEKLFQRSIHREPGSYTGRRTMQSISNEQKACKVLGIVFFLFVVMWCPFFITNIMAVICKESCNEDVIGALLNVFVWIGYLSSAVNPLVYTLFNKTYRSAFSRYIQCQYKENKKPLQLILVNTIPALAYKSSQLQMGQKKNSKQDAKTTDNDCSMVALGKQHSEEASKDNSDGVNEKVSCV

For data set [1], the target named is T1, α1a (h) (Homo sapiens (Human), UniProt P35348). In words: α1A adrenergic agonist effect assay. The data set is classed as cell-based. The conditions noted are these: for IC50: agonist effect, CHO cells; for activation at 1 µM: α1A(h) agonist effect, read-out: % stimulation relative to control (1 μM). As for the experimental part:
Assays for determining the agonist effect on α1A (h) were performed according to the procedure described in Example 21, and the results are represented in Table D below.

The target in data set [2] is T2, α1b (h) (Homo sapiens (Human), UniProt P35368). Description: α1B adrenergic agonist effect assay. The conditions noted are these: CHO cells. Type of data set: cell-based.
T2 sequence (P35368 whole entry): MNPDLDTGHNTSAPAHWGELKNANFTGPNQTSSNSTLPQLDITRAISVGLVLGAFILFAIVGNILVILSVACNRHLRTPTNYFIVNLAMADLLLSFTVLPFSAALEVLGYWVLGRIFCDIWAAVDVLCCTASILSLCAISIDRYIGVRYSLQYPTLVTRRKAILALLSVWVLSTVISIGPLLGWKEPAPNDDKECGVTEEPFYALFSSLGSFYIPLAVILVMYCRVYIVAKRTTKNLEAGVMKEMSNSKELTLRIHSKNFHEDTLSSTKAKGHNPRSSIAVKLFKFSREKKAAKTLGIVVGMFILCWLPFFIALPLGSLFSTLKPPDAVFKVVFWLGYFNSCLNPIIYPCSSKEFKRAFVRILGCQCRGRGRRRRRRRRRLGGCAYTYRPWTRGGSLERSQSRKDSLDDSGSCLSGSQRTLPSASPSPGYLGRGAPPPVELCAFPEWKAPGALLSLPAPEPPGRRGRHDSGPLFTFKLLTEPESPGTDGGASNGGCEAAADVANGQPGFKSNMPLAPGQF
The target of data set [3] is T3, α1d (h) (Homo sapiens (Human), UniProt P25100). Description: α1D adrenergic agonist effect assay. The data set is classed as cell-based. The conditions noted are these: CHO cells.
T3 sequence (P25100 whole entry): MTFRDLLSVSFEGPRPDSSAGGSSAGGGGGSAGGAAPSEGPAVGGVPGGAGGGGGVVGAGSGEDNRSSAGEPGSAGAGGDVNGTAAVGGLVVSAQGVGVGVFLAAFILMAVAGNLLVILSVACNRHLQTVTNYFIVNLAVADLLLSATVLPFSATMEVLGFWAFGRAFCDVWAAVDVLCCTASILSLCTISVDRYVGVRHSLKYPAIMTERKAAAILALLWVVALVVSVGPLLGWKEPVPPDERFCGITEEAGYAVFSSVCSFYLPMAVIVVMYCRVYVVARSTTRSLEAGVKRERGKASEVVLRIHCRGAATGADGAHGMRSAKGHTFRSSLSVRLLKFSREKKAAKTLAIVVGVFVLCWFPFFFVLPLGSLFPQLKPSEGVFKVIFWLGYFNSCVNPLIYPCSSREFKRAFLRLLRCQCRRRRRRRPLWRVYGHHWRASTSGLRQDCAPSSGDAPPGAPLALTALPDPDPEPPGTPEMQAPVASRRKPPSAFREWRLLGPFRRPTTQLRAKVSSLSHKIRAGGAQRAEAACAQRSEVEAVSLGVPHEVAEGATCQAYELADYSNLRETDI
Data set [4] deals with T1, α1a (h). In words: α1A adrenergic antagonist effect assay. The data set is classed as cell-based. Conditions: for IC50: antagonist effect, CHO cells; for inhibition at 1 µM: α1A(h) antagonist effect, read-out: % inhibition of control values (1 μM). As to the method:
Assays for determining the antagonist effect on α1A (h) were performed according to the procedure described in Example 21, and the results are represented in Table E below. […] No antagonist effect is observed for the other compounds.

The target of data set [5] is T2, α1b (h). Description: α1B adrenergic antagonist effect assay. The conditions noted are these: CHO cells. The data set is classed as cell-based.
The target of data set [6] is T3, α1d (h). In words: α1D adrenergic antagonist effect assay. Type of data set: cell-based. Conditions: CHO cells.
In a further data set the test system is Vero-E6 cell line. In words: Toxicity evaluation on Vero-E6 cell line. The conditions noted are these: Vero E6, 50 μM to 0.37 μM, 72 h post treatment. The data set is classed as cell-based. As for the experimental part: Day 1: Cell were seeded in 96 wells plate, Vero E6, P40, 10000 cells/well. Growth conditions included medium DMEM high glucose.
Day 2: Compounds were diluted in a mix of 50% DMSO and 50% growth medium to. 10 mM concentration was used for PB28 (10 mg vial from Tocris, 1-Cyclohexyl-4-(3-(5-methoxy-1,2,3,4-tetrahydronaphthalen-1-yl)-n-propyl)piperazine dihydrochloride, see Gordon et al. Nature 2020, 583, […]). Other compounds were prepared at 2 mM concentration stock solution. Cells were treated from 50 μM to 0.37 μM by serial dilution two-fold dilution in triplicate. Controls were designed to include the same concentration of DMSO for each tested products.
Day 5: For a 72 h post treatment, cells were fixed with formalin and stained with Hoetsch33342. Cells were imaged using a Cell Insight CX7 high content screening microscope. Number of cells and nuclear parameters were assessed using an internal cytotoxicity testing protocol.

The next data set concerns the target hERG (Homo sapiens (Human), UniProt Q12809). Description: hERG inhibition assay.
For the next data set, the target named is dopamine D2S receptor (Homo sapiens (Human), UniProt P14416). In words: Dopamine D2S receptor binding assay (Eurofins Cerep item 1322). The conditions noted are these: [3H]7-OH-DPAT, read-out: % inhibition of control specific binding (1 μM). As to the method:
Assays for determining dopamine D2S receptor binding values were performed according to Eurofins Cerep protocol item 1322 and the results are represented in Table C below. The parameters used for the assay are described below. […] Common antipsychotics, in contrast, block dopamine receptors (Keefe, et al., J Clin Psychiatry. 2018; 79 (3): 17m11753).

For a further data set, the target named is 5HT2A (Homo sapiens (Human), UniProt P28223). Description: 5HT2A agonist effect assay. Type of data set: cell-based. Conditions: for activation at 0.1 µM: 100 nM, read-out: % stimulation relative to control (100 nM); for activation at 1 µM: read-out: % stimulation relative to control (1 μM). As to the method: Assays for determining the agonist effect on 5HT2A were performed according to the procedure described in Example 21, and the results are represented in Table F below. The compounds in Table F have no agonist effect on 5HT2A at 1 μM and 100 nM.

[7] abbreviates: [3H](+)pentazocine, Jurkat cells, read-out: Sigma-1 Ki.
The mark [8] stands for this setting: [3H]DTG (+1 μM (+)pentazocine), Jurkat cells, read-out: Sigma-2 Ki.

The term Ki denotes a dissociation constant, usually derived from enzyme kinetics or from competition with a known ligand. Usually IC50 stands for the point on the concentration scale where inhibition reaches its midpoint. Lower therefore signals greater potency in that assay. The term inhibition denotes the drop in the measured response relative to a control, in per cent.

T1 sequence (P35348 whole entry): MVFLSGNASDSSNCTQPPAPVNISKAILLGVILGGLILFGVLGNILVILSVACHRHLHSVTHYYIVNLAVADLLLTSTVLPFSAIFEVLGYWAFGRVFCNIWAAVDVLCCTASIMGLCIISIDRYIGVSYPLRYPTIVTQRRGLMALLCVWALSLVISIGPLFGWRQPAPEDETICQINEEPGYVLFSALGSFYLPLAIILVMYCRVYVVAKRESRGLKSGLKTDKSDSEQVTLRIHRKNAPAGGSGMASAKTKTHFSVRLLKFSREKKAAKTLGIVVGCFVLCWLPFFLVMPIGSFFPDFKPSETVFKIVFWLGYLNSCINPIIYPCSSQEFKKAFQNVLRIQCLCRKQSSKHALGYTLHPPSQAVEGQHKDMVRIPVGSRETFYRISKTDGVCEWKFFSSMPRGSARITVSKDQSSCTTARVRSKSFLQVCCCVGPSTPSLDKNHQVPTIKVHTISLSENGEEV
Sequence of hERG (Q12809 whole entry): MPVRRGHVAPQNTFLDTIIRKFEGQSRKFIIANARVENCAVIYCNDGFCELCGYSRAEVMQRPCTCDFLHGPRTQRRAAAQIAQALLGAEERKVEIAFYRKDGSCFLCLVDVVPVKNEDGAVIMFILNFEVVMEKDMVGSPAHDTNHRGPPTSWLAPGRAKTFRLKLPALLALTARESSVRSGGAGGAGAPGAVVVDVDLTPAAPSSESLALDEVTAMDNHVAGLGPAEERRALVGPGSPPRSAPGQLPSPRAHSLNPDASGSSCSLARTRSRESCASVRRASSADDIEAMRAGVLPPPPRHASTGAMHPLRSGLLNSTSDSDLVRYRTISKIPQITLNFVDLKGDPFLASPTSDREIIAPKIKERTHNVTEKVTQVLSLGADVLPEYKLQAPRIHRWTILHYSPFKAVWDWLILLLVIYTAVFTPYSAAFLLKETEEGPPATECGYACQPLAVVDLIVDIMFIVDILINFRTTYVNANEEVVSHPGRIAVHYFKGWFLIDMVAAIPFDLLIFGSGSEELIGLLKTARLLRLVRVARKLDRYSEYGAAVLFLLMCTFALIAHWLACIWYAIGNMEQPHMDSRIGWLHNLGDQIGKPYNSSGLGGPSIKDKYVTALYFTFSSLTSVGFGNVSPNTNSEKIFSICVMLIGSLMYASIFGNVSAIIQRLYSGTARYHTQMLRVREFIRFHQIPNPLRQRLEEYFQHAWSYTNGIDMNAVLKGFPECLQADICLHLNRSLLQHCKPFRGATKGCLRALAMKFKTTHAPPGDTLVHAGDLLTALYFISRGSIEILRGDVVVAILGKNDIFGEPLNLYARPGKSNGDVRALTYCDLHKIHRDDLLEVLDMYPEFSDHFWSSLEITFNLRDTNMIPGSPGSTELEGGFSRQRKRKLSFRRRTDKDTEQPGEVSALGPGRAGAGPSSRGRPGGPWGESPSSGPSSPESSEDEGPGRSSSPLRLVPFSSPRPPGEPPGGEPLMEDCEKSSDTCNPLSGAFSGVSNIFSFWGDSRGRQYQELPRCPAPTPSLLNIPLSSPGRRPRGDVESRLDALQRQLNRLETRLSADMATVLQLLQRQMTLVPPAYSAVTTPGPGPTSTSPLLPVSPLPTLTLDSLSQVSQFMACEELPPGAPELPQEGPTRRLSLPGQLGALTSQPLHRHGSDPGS
Sequence of dopamine D2S receptor (P14416 other isoform, or with tags, fused parts or gaps): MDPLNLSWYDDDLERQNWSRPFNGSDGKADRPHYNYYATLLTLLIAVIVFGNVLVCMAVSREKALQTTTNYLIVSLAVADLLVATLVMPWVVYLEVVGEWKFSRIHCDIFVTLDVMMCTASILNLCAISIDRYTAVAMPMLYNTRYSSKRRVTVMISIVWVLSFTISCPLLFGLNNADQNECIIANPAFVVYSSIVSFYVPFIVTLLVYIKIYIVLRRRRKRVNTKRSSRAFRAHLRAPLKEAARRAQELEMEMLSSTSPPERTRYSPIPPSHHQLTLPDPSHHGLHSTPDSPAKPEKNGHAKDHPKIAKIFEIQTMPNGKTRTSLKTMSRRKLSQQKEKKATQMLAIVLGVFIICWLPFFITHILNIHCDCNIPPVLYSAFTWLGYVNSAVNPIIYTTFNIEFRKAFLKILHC

With `CCCN1CCN(c2ccc3c(c2)CN(C(=O)OCc2ccccc2)CC3(C)C)CC1` [Compound 2, benzyl 4,4-dimethyl-7-(4-propylpiperazin-1-yl)-3,4-dihydroisoquinoline-2(1H)-carboxylate], the Ki at sigma 1 (h) (setting [7]) and at Sigma 2 (h) (setting [8]) was 5 to 50 nM throughout. For the same molecule, the IC50 at 5-HT2A (h), on α1a (h) [1], at α1b (h) [2], at α1d (h) [3], on α1a (h) [4] and against α1b (h) [5] was greater than 1000 nM throughout. Moreover, the values for the half-inhibitory concentration (IC50) at α1d (h) [6] and at hERG were greater than 1000 nM and greater than 3 µM, respectively. The “cytotoxicity (cell number)” value in the data set with Vero-E6 cell line is recorded as “not cytotoxic”.
Consider `CC1(C)CCN(C2CCCC2)Cc2cc(-c3ccc(C(F)(F)F)cc3)ccc21` [Compound 10, 2-cyclopentyl-5,5-dimethyl-8-(4-(trifluoromethyl)phenyl)-2,3,4,5-tetrahydro-1H-benzo[c]azepine], for which the values for the inhibition constant Ki on sigma 1 (h) and on Sigma 2 (h) were greater than 500 nM and 5 to 50 nM, respectively. The 50% inhibitory concentration (IC50) on 5-HT2A (h), on α1a (h) [1], at α1b (h) [2], on α1d (h) [3], against α1a (h) [4] and against α1b (h) [5] was greater than 1000 nM throughout. The values for the 50% inhibitory concentration (IC50) against α1d (h) [6] and against hERG were greater than 1000 nM and greater than 3 µM, respectively.
For `CC(C)OC(=O)N1Cc2cc(N3CCN(C4CCCC4)CC3)ccc2C(C)(C)C1` [Compound 45, isopropyl 7-(4-cyclopentylpiperazin-1-yl)-4,4-dimethyl-3,4-dihydroisoquinoline-2(1H)-carboxylate], the results for the Ki at sigma 1 (h) (setting [7]) and on Sigma 2 (h) (setting [8]) were 0.1 to 5 nM and 5 to 50 nM, respectively. Moreover, the results for the activation at 1 µM at α1a (h) [1] and at 5HT2A were 0% and -1%, respectively. Moreover, the inhibition at 1 µM on α1a (h) [4] is 19%; at dopamine D2S receptor it was -5%. The activation at 0.1 µM at 5HT2A is -4%. The same molecule displayed an IC50 on hERG greater than 3 µM.
Consider `CC1(C)CCN(C(=O)C2CCCC2)Cc2cc(N3CCN(C4CCCC4)CC3)ccc21` [Compound 73, cyclopentyl(8-(4-cyclopentylpiperazin-1-yl)-5,5-dimethyl-1,3,4,5-tetrahydro-2H-benzo[c]azepin-2-yl)methanone], for which the figures for the Ki on sigma 1 (h) (setting [7]) and on Sigma 2 (h) (setting [8]) were 0.1 to 5 nM and 5 to 50 nM, respectively. Further, the activation at 1 µM on α1a (h) [1] and on 5HT2A was 0% in each case. In addition, the figures for the inhibition at 1 µM on α1a (h) [4] and on dopamine D2S receptor were 31% and 6%, respectively. For the same molecule, the activation at 0.1 µM on 5HT2A came out at 2%. At hERG, this molecule gave an IC50 of 2.6 µM.
Regarding `CC(C)OC(=O)N1CCC(C)(C)c2ccc(N3CCN(C4CCCC4)CC3)cc2C1` [Compound 79, isopropyl 8-(4-cyclopentylpiperazin-1-yl)-5,5-dimethyl-1,3,4,5-tetrahydro-2H-benzo[c]azepine-2-carboxylate], the inhibition constant (Ki) on sigma 1 (h) (setting [7]) lay within 0.1 to 5 nM; at Sigma 2 (h) (setting [8]), 5 to 50 nM. Moreover, the activation at 1 µM on α1a (h) [1] and on 5HT2A was 0% in each case. The inhibition at 1 µM at α1a (h) [4] amounted to 13%; on dopamine D2S receptor it was 19%. Moreover, the activation at 0.1 µM at 5HT2A stood at 1%. The same molecule displayed a concentration for half-maximal inhibition (IC50) at hERG greater than 3 µM.
`CC1(C)CCN(S(=O)(=O)c2cccc(Cl)c2)Cc2cc(N3CCC(N4CCOCC4)CC3)ccc21` [Compound 80, 4-(1-(2-((3-chlorophenyl)sulfonyl)-5,5-dimethyl-2,3,4,5-tetrahydro-1H-benzo[c]azepin-8-yl)piperidin-4-yl)morpholine]: the Ki on sigma 1 (h) (setting [7]) fell in the range of 0.1 to 5 nM; at Sigma 2 (h) (setting [8]), 50 to 100 nM. Moreover, the activation at 1 µM at α1a (h) [1] is 0%; on 5HT2A, 1%. Also, the inhibition at 1 µM on α1a (h) [4] is 15%; at dopamine D2S receptor it was 4%. Besides, the activation at 0.1 µM at 5HT2A stood at 0%. This molecule also registered an IC50 against hERG greater than 3 µM.
